Measured values as given in PMC10692721, “Drug discovery for heart failure targeting myosin-binding protein C” (The Journal of Biological Chemistry, 2023).
Entries after “also recorded” stand apart in the source; their conditions may differ. Where a name gives a salt, the structure may show the parent alone.

Tests used:
[1] = tested on: FMAL-actin plus TMR-cC0-C2; assay: Selleck library HTS, 473 nm excitation (FLT of FMAL-actin with TMR-cC0-C2, FLT-FRET); type: binding, human; conditions: for 473-nm Δτ, Repeat 1 / 473-nm Δτ, Repeat 2: initial screen, 30 μM compound; for 473-nm z-score (based on avg Δτ): robust z-score, hit threshold ±4, 30 μM compound
Summary of the method: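 Donor fluorescence lifetime was then recorded. Waveforms were fit to a single exponential, and ΔFLT was obtained after a moving-median plate-gradient correction (half-row window), rescaled by the median DMSO lifetime.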

[2] = tested on: rabbit fast skeletal (psoas) myofibrils; assay: Skeletal myofibril ATPase assay; type: biochemical; conditions: 50 μM compound; for effect on skeletal MF ATPase activity (in words): pCa 8 to pCa 4
Description: Rabbit psoas and bovine cardiac myofibrils were prepared as described in our previous study ([17]). An enzyme-coupled, NADH-linked ATPase assay was used to measure skeletal and cardiac myofibril ATPase activity in 96-well microplates at 23 °C. Ionic strength was maintained below 0.2 M, so myofilaments remained insoluble and stable ([32]). To achieve optimal enzymatic activities, buffers for skeletal and cardiac myofibrils differed slightly ([33], [34]): skeletal in 50 mM MOPS, 100 mM KCl, 5 mM MgCl2, 1 mM EGTA, pH 7.0; cardiac in 20 mM MOPS, 35 mM NaCl, 5 mM MgCl2, 1 mM EGTA, pH 7.0. Each well in the microplate contained an assay mix of 0.84 mM phosphoenolpyruvate, 0.17 mM NADH, 10 U/vol pyruvate kinase, 20 U/vol lactate dehydrogenase. The concentration of free Ca^2+ was controlled by EGTA buffering ([35]). Myofibrils were dispensed in microplates with a multichannel pipette and were incubated with assay mix plus compound of interest for 20 min at 23 °C. The concentration of myofibrils used was 0.01 mg/ml for skeletal and 0.05 mg/ml for cardiac myofibrils. The assay was started upon the addition of ATP, at a final concentration of 2.1 mM (total volume to 200 μl), and absorbance was recorded at 340 nm in a SpectraMax Plus microplate spectrophotometer from Molecular Devices. The steady-state myofibrillar ATPase rate was measured from NADH oxidation, measured as the rate of decrease in absorption at 340 nm for 30 min, with absorption data collected every 15 s. All data and statistical analysis of steady-state kinetics were conducted with the OriginPro program. The results were fitted with the Hill equation:(6) V=V0+(Vmax/1+10^−n∗^(pCa50−pCa)) where V is the ATPase rate and n is the Hill coefficient.
ATPase activity is reported on the μmol ATP/mg protein/min scale. Average data are presented as mean ± SD. Sample means are derived from three different myofibril preps (N = 3), each done in duplicate (n = 6).
The effects of compounds on ATPase activity of myofibrils were determined in the presence of 50 μM compound, across a 12-point pCa range from 4.0 (activation) to 8.0 (relaxation). The calcium sensitivity (pCa50) was determined by fitting the curves to the Hill equation. In all experiments, a 1% DMSO-only control was included. The normalized ATPase activity of the selected compounds can be found in Figure 6.

[3] = tested on: TMR-cC0-C2 (C0-C2 fragment of human cMyBP-C); assay: FLT-TMR concentration-response assay (FLT of TMR on cC0-C2, no actin); type: binding; conditions: for cC0-C2/cC0-C2#P (ratio of FLT changes) / cC0-C2 FLT change (% change from DMSO, FLT of TMR-MyBP-C): 60 μM compound; for effect on FLT of TMR-cC0-C2 (in words): concentration-response, no actin
Summary of the method: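 Hits tested at eight concentrations (0.5–100 μM) and read on a high-throughput fluorescence lifetime plate reader. Hill fits applied only under certain conditions.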

[4] = tested on: TMR-fC1-C2 (C1-C2 of fast skeletal MyBP-C); assay: FLT-TMR concentration-response assay, fC1-C2; type: binding; conditions: for cC0-C2/fC1-C2 (ratio of FLT changes) / fC1-C2 FLT change (% change from DMSO, FLT of TMR-MyBP-C): 60 μM compound; for effect on FLT of TMR-fC1-C2 (in words): concentration-response, no actin
Description: (§1) Compounds identified as initial hits were further examined to determine the concentration–response curves for seven conditions ([1]): FMAL-actin alone identified actin-binding compounds that alter the FLT of FMAL-actin ([2]).
(§2) Fluorescence lifetime (FLT) measurements were acquired using a high-throughput FLT plate reader (Fluorescence Innovations, Inc) ([14], [27]), provided by Photonic Pharma LLC. […] The observed waveforms were analyzed as described previously ([15], [28]).
(§3) The primary hits were dissolved in DMSO to make a 10 mM stock solution, which was serially diluted in 96-well mother plates. Hits were screened at eight concentrations (0.5–100 μM). […] Compounds (1 μl) were transferred from the mother plates into 384-well plates using a Mosquito HV liquid handler (TTP Labtech Ltd, Hertfordshire, UK). The same procedure of dispensing as for the pilot screening was applied in the concentration-response assays. Concentration dependence of the FLT-FRET (E/EDMSO) or FLT-TMR (Δτ) change data was fit to a Hill equation only under certain conditions to help guide the eye (Fig. 4).

[5] = tested on: TMR-cC0-C2; assay: Selleck library HTS, 532 nm excitation (FLT of TMR-cC0-C2 in presence of FMAL-actin); type: binding, human; conditions: for 532-nm Δτ, Repeat 1 / 532-nm Δτ, Repeat 2: initial screen, 30 μM compound; for 532-nm z-score (based on avg Δτ): robust z-score, hit threshold ±4, 30 μM compound
[6] = tested on: PKA-phosphorylated TMR-cC0-C2 (cC0-C2#P); assay: FLT-TMR concentration-response assay, PKA-phosphorylated cC0-C2; type: binding, human; conditions: for cC0-C2#P FLT change (% change from DMSO, FLT of TMR-MyBP-C): 60 μM compound
Description: as §1, §2, §3

[7] = tested on: FMAL-actin/TMR-cC0-C2 interaction; assay: FLT-FRET concentration-response assay, FMAL-actin plus TMR-cC0-C2; type: binding, human; conditions: for specificity of FLT-FRET effect for unphosphorylated over phosphorylated cC0-C2: effect on cC0-C2 compared to phosphorylated cC0-C2 (Tables 1 and 2); for effect on FLT-FRET / binding between FMAL-actin and TMR-cC0-C2 (in words): unphosphorylated cC0-C2
Description: as §1, §2, §3

[8] = tested on: FMAL-actin/TMR-fC1-C2 interaction; assay: FLT-FRET concentration-response assay, FMAL-actin plus TMR-fC1-C2; type: binding
Description: as §1, §2, §3

[9] = tested on: FMAL-actin/PKA-phosphorylated TMR-cC0-C2 interaction; assay: FLT-FRET concentration-response assay, FMAL-actin plus PKA-phosphorylated TMR-cC0-C2; type: binding, human; conditions: phosphorylated cC0-C2
Description: as §1, §2, §3

Row | Structure (SMILES) | 473-nm Δτ, Repeat 1 [1] | 473-nm Δτ, Repeat 2 [1] | 473-nm z-score (based on avg Δτ) [1] | effect on skeletal MF ATPase activity (in words) [2] | cC0-C2/cC0-C2#P (ratio of FLT changes) [3] | cC0-C2 FLT change (% change from DMSO, FLT of TMR-MyBP-C) [3] | cC0-C2/fC1-C2 (ratio of FLT changes) [4] | fC1-C2 FLT change (% change from DMSO, FLT of TMR-MyBP-C) [4] | 532-nm Δτ, Repeat 1 [5] | 532-nm Δτ, Repeat 2 [5] | 532-nm z-score (based on avg Δτ) [5] | cC0-C2#P FLT change (% change from DMSO, FLT of TMR-MyBP-C) [6] | specificity of FLT-FRET effect for unphosphorylated over phosphorylated cC0-C2 [7] | effect on FLT-FRET / binding between FMAL-actin and TMR-cC0-C2 (in words) [7] | effect on FLT-FRET / binding between FMAL-actin and PKA-phosphorylated TMR-cC0-C2 (in words) [9] | effect on FLT of TMR-cC0-C2 (in words) [3] | effect on FLT of TMR-fC1-C2 (in words) [4] | effect on FLT-FRET / binding between FMAL-actin and TMR-fC1-C2 (in words) [8] | also measured
1 | O=C(Nc1cccc2c(=O)cc(-c3nnn[nH]3)oc12)c1ccc(OCCCCc2ccccc2)cc1 [Pranlukast] | 0.061 ns | 0.008 ns | 1.95 | affected | 0.6 | 30.7% | 0.6 | 50.3% | 0.073 ns | 0.116 ns | 5.80 | 50.1% | – | – | – | – | – | – | effect on skeletal MF ATPase activity (in words) ([2]; listed as Pranleukast): affected ATPase
2 | NC(=O)c1cc[n+](CC2=C(C(=O)O)N3C(=O)[C@@H](NC(=O)[C@@H](c4ccccc4)S(=O)(=O)[O-])[C@H]3SC2)cc1 [Cefsulodin sodium] | 0.394 ns | 0.316 ns | 19.91 | affected ATPase | 1.1 | 9.1% | 0.8 | 11.5% | 0.114 ns | 0.083 ns | 6.07 | 8.1% | – | – | – | – | – | – | effect on skeletal MF ATPase activity (in words) ([2]; listed as Cefsoludin sodium): affected
3 | C[C@@H](O)[C@H]1C(=O)N2C(C(=O)[O-])=C(S[C@@H]3CN[C@H](C(=O)Nc4cccc(C(=O)O)c4)C3)[C@H](C)[C@H]12.[Na+] [Ertapenem sodium] | 0.353 ns | 0.231 ns | 16.37 | marked increase in ATPase activity at pCa 8; also recorded: affected ATPase | 1.3 | 10.2% | 0.8 | 12.2% | 0.079 ns | 0.157 ns | 7.23 | 8.0% | – | – | – | – | – | – | effect on Ca^2+-sensitivity of skeletal MF ATPase (in words) [2]: altered Ca^2+ sensitivity
4 | CO/N=C(\C(=O)N[C@@H]1C(=O)N2C(C(=O)O)=C(C[N+]3(C)CCCC3)CS[C@H]12)c1csc(N)n1 [Cefepime dihydrochloride monohydrate] | 0.127 ns | 0.102 ns | 6.43 | affected ATPase | – | – | – | – | 0.006 ns | -0.096 ns | -2.70 | – | – | – | – | – | – | – | effects on actin binding (FRET) ([7]; range over cC0-C2, phosphorylated cC0-C2 and fC1-C2): 13–35%; reduction in actin binding (fC1-C2-actin FRET) ([8]; skeletal MyBP-C): 13%
5 | CC(C(=O)O)c1ccc2c(c1)CC(=O)c1ccccc1S2 (stereo not shown) [Zaltoprofen] | 0.113 ns | 0.083 ns | 5.52 | – | – | – | – | – | -0.015 ns | 0.015 ns | 0.04 | – | stronger reduction of FRET with non-phosphorylated than phosphorylated | decreased | decreased | do not affect | do not affect | decreased | –
6 | C#Cc1cccc(Nc2ncnc3cc(OCCOC)c(OCCOC)cc23)c1 [Erlotinib] | 0.026 ns | 0.001 ns | 0.78 | affected; also recorded: affect skeletal muscle ATPase | 1.0 | 9.8% | 1.2 | 8.5% | 0.100 ns | 0.119 ns | 6.74 | 9.7% | – | decrease | – | increases; also recorded: affect | increases | – | effect on FLT of PKA-phosphorylated TMR-cC0-C2 (in words) ([6]; concentration-response, no actin): increases
7 | COC(=O)N[C@H](C(=O)N1CCC[C@H]1c1nc(-c2ccc3c(c2)O[C@@H](c2ccccc2)n2c-3cc3cc(-c4c[nH]c([C@@H]5CCCN5C(=O)[C@@H](NC(=O)OC)C(C)C)n4)ccc32)c[nH]1)C(C)C [Elbasvir] | 0.142 ns | 0.080 ns | 6.24 | – | – | – | – | – | -0.002 ns | 0.011 ns | 0.31 | – | 5 fold | decreased | decreased | do not affect | do not affect | decreased | –
8 | CCN(C(=O)c1c(O)c2c(Cl)cccc2n(C)c1=O)c1ccccc1 [Laquinimod] | 0.109 ns | 0.071 ns | 5.08 | – | – | – | – | – | -0.017 ns | -0.016 ns | -0.99 | – | stronger reduction of FRET with non-phosphorylated than phosphorylated | decreased | decreased | do not affect | do not affect | decreased | –
9 | CCC(C)(Oc1ccc(C2(c3ccc(OC(C)(CC)C(=O)O)cc3)CCCCC2)cc1)C(=O)O (stereo not shown) [Clinofibrate] | 0.090 ns | 0.075 ns | 4.65 | – | – | – | – | – | 0.006 ns | 0.016 ns | 0.70 | – | stronger reduction of FRET with non-phosphorylated than phosphorylated | decreased | decreased | do not affect | do not affect | decreased | –
